*1 amine or outer side, *2 acyl side, *3 side chain or, on linkers, in order; H or OH if unused. Where a SMILES comes first, the peptide text is derived from it. Bridges are numbered along the chain shown (N, C = ends). Side-chain parts run from the residue outwards. [ ]: non-standard residue; d: D form. The star is where a group is joined. Trp(5-OMe) = COc1ccc2[nH]cc(C[C@H](N)C(=O)O)c2c1; DBCO = C1#Cc2ccccc2N(*)Cc2ccccc21; Igl = N[C@H](C(=O)O)C1Cc2ccccc2C1; PEG5 = NCCOCCOCCOCCOCCOCCC(=O)O; Suc = O=C(CCC(=O)[*:2])[*:1]; Pra = C#CC[C@H](N)C(=O)O
Molecular target: T1, Fc tagged recombinant human EGFR (rhEGFR-Fc) (Homo sapiens, UniProt P00533)
T1 construct: purchased R&D Systems 344-ER-050
Format: binding
Details: for KD: Table 6, TGF fragments
Protocol: Surface plasmon resonance (SPR) binding studies were carried out on a Biacore T200 instrument (GE Healthcare). Approximately 10,000 RU of anti-Fc antibody (GE Healthcare, Cat #BR100839) was immobilized via amine coupling on each of flow cells 1 and 2 of a CM5 dextran-coated gold sensor chip (GE Healthcare, Cat #BR100530). […] The contact time and resulting amount of rhEGFR-Fc capture was varied based on the nature of the analyte, namely whether it was a peptide or nanoparticle.
Peptide binding assays were carried out in 10 mM PBS buffer supplemented with 0.05% surfactant P20 and 5% DMSO by volume, at 25° C. Peptides were injected over the rhEGFR-Fc surface for 60 s, followed by dissociation (buffer injection) for 60 s and regeneration with a 10 s pulse of 3M MgCl2. A fresh rhEGFR-Fc surface was generated for each concentration of each peptide tested. Peptide binding data was analyzed by fitting to a 1:1 Langmuir kinetic model to obtain the on-rate (ka), off-rate (kd) and/or equilibrium binding constant (KD) of the interaction.

T1 sequence (P00533 with tags, fused parts or gaps limits assumed): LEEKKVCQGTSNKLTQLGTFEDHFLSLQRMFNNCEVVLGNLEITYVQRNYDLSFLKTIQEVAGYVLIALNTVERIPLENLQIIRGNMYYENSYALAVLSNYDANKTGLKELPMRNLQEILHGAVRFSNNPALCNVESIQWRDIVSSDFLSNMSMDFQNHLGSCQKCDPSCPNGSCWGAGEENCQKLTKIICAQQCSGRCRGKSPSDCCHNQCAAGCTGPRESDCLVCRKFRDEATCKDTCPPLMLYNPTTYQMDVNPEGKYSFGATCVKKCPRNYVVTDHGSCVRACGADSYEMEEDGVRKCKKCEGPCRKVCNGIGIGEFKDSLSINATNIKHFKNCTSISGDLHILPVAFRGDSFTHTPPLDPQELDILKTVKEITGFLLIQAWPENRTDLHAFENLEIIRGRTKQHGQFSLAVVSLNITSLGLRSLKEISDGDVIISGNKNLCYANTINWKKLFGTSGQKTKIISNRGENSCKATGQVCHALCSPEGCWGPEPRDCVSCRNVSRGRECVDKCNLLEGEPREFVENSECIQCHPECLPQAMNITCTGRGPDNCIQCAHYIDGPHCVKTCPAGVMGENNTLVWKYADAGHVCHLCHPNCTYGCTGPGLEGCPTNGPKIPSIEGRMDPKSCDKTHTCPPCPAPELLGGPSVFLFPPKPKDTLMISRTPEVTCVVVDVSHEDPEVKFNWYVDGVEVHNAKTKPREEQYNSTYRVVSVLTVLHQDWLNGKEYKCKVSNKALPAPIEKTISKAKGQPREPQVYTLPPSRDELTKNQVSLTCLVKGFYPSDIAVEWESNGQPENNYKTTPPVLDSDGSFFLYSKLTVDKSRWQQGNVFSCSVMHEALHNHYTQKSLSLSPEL

Compound	binding of free peptide to EGFR by SPR, in words	KD	further results
CC(=O)N[C@@H](CC(=O)O)C(=O)N[C@@H](C)C(=O)N[C@H]1CSSC[C@@H](C(=O)N[C@@H](CC(C)C)C(=O)N[C@@H](CCC(N)=O)C(=O)NCC(=O)NCC(=O)N[C@@H](CCCCNC(=O)CCOCCOCCOCCOCCOCCNC(=O)CCC(=O)N2Cc3ccccc3C#Cc3ccccc32)C(N)=O)NC(=O)[C@H](CCC(=O)O)NC(=O)[C@H](CCCNC(=N)N)NC(=O)CNC(=O)[C@H](Cc2c[nH]c3ccccc23)NC(=O)[C@H](C(C)C)NC(=O)[C@H](CCC(=O)O)NC(=O)[C@H](Cc2c[nH]c3ccccc23)NC(=O)[C@H]([C@@H](C)O)NC1=O [Peptide P2-2]	improved affinity relative to the parent peptide	–	–
C#CC[C@H](NC(=O)CNC(=O)CNC(=O)[C@H](CCC(N)=O)NC(=O)[C@H](CC(C)C)NC(=O)[C@@H]1CSSC[C@H](NC(=O)[C@@H]2CCCN2C(=O)[C@@H](N)CC(=O)O)C(=O)N[C@@H]([C@@H](C)O)C(=O)N[C@@H](Cc2ccccc2)C(=O)N[C@@H](CCC(=O)O)C(=O)N[C@@H](C(C)C)C(=O)N[C@@H](Cc2c[nH]c3ccccc23)C(=O)NCC(=O)N[C@@H](CCCNC(=N)N)C(=O)N[C@@H](CCC(=O)O)C(=O)N1)C(=O)NCC(N)=O [Peptide P2-29] (H-DPCTFEVWGRECLQGG[Pra]G-NH2; disulfide 3-12)	–	–	KD/P2 KD (Table 13, point mutations): 9.24
CC(=O)N[C@@H](CC(=O)O)C(=O)N1CCC[C@H]1C(=O)N[C@@H]1C(=O)N[C@@H]([C@@H](C)O)C(=O)N[C@@H](Cc2c[nH]c3ccccc23)C(=O)N[C@@H](CCC(=O)O)C(=O)N[C@@H](C(C)C)C(=O)N[C@@H](Cc2c[nH]c3ccccc23)C(=O)NCC(=O)N[C@@H](CCCNC(=N)N)C(=O)N[C@@H](CCC(=O)O)C(=O)N[C@H](C(=O)N[C@@H](CC(C)C)C(=O)N[C@@H](CCC(N)=O)C(=O)NCC(=O)NCC(=O)N[C@@H](CCCCNC(=O)CCOCCOCCOCCOCCOCCNC(=O)CCC(=O)N2Cc3ccccc3C#Cc3ccccc32)C(N)=O)C(C)(C)SSC1(C)C [Peptide P2-55]	improved affinity relative to the parent peptide	–	Result (Table 14, relative affinity compared to KD of parent P2 (FIG. 16)): 1.18
COc1ccc2[nH]cc(C[C@@H]3NC(=O)[C@H](C(C)C)NC(=O)[C@H](CCC(=O)O)NC(=O)[C@H](C4Cc5ccccc5C4)NC(=O)[C@H]([C@@H](C)O)NC(=O)[C@@H](NC(=O)[C@@H]4CCCN4C(=O)[C@H](CC(=O)O)NC(C)=O)CSSC[C@@H](C(=O)N[C@@H](CC(C)C)C(=O)N[C@@H](CCC(N)=O)C(=O)NCC(=O)NCC(=O)N[C@@H](CCCCNC(=O)CCOCCOCCOCCOCCOCCNC(=O)CCC(=O)N4Cc5ccccc5C#Cc5ccccc54)C(N)=O)NC(=O)[C@H](CCC(=O)O)NC(=O)[C@H](CCCNC(=N)N)NC(=O)CNC3=O)c2c1 [Peptide P2-102] (Ac-DPCT[Igl]EV[Trp(5-OMe)]GRECLQGGK([PEG5-Suc-DBCO])-NH2; disulfide 3-12)	improved affinity relative to the parent peptide	–	–
C#CC[C@H](NC(=O)CN)C(=O)NCC(=O)NCC(=O)N[C@@H](C)C(=O)N[C@@H](CC(=O)O)C(=O)N[C@@H](CC(C)C)C(=O)N[C@@H](CC(C)C)C(=O)N[C@@H](C)C(=O)N[C@H](C(=O)N[C@H](C(=O)N[C@@H](C)C(=O)N[C@@H](C)C(N)=O)C(C)C)C(C)C [TGFf-4] (H-G[Pra]GGADLLAVVAA-NH2)	–	No binding	–
C#CC[C@H](NC(=O)CN)C(=O)NCC(=O)NCC(=O)N[C@@H](C)C(=O)N[C@@H](CCCNC(=N)N)C(=O)N[C@@H](CS)C(=O)N[C@@H](CCC(=O)O)C(=O)N[C@@H](Cc1c[nH]cn1)C(=O)N[C@@H](C)C(=O)N[C@@H](CC(=O)O)C(=O)N[C@@H](C)C(=O)N[C@@H](CC(=O)O)C(=O)N[C@@H](CC(C)C)C(N)=O [TGFf-5] (H-G[Pra]GGARCEHADADL-NH2)	–	No binding	–
